# Reference: patent publication US11453671B2, “Pyrazolopyrimidine inhibitors of JAK kinases and uses thereof” (Genentech, Inc., priority 2020, dated 2022)
# Where two headings read alike, the source gives them in different places.
# Tests used:
# [1] = Mouse lung tissue binding (equilibrium dialysis, RED); type: in vitro ADME; details: for Mouse LTB %: mouse lung tissue binding, % bound (Table 3); for Lung tissue binding, %: Table 5, sulfone-sulfide analog pairs
# Protocol: Mouse lung tissue binding. A high bound fraction or percentage of JAK1/JAK2 inhibitors to lung tissue may be undesirable since it can reduce the amount of free drug available to inhibit JAK1 or JAK2.
# (a) Tissue binding experiments were performed in triplicate (n=3) using a Single-Use RED Plate by following the standard protocol. Initially, individual drugs were spiked to tissue homogenates (pH 7.4) to achieve a final concentration of 1 μM, and then 300 μL of drug-tissue homogenate mixtures were transferred to the donor wells of the RED plate which was pre-loaded with 500 μL phosphate buffer saline (133 mM) on the receiver wells. The RED plate was sealed with a gas permeable membrane and placed in a shaking incubator (450 rpm, VWR Symphony™) for 6 hr at 37° C. with 5% CO2. At the end of incubation, aliquots of 30 μL samples were taken out of the RED device and matrix equalized with an equal volume of tissue homogenates or buffer, and resulting samples were then immediately quenched with ice cold acetonitrile (sample:acetonitrile 1:4) containing either propranolol or labetalol as an internal standard. After shaking for 15 min at 500 rpm on a Thermo Scientific Compact Digital MicroPlate Shaker, all samples were then subjected to centrifugation at 3700 rpm for 15 min (Beckman Coulter Allegra X 12R) to remove plasma protein. Subsequently, supernatants were collected and then diluted with an equal volume of water prior to LC-MS/MS analysis.
# (b) In an alternate procedure, the extent of lung tissue binding of test compound to mouse lung homogenate may also be determined by equilibrium dialysis using Pierce RED (rapid equilibrium dialysis) devices (Fisher Scientific 89811 & 89809). A 10 mM solution of compound in DMSO was prepared and diluted to 1 mM with DMSO. An aliquot of this 1 mM (4 μL) was added into lung homogenate (dilution factor of 1:9, lung tissue:potassium phosphate buffer (0.05 M, pH 7.4)) to give a final compound incubation concentration of 5 μM with solvent accounting for 0.5% (v/v) of the final incubation volume.
# For each assay, the percentage lung tissue bound was determined in triplicate. Lung homogenate (200 μL) was loaded into one side of a RED device insert, in triplicate, and 350 μL of potassium phosphate buffer was loaded into the other side. The RED devices were sealed and incubated for 4 hours at ca. 37° C. on an orbital shaker (˜150 rpm).
# Following incubation, an aliquot of lung homogenate (8 μL) and an aliquot of dialysate (72 μL) were matrix matched (lung homogenate with 72 μL phosphate buffer, dialysate with 8 μL lung homogenate) ahead of analysis. Protein was precipitated from the samples with the addition of 160 μL of acetonitrile containing internal standard. The same matrix matching and protein precipitation procedure was performed on lung homogenate aliquots sampled at the start of the experiment (t=0 min samples), for the assessment of the mass balance. The quenched samples were centrifuged (4000 rpm, 30 min, 4° C.) and the resultant supernatant diluted with water (3:1 (v/v), supernatant: water) and the samples analysed for parent compound by liquid chromatography mass spectrometry assay.
# The unbound fraction (fu) in lung homogenate was determined from the ratio of the dialysate to homogenate peak area, corrected to take into account the lung homogenate dilution (D) to enable an estimate of whole lung tissue binding using the following equations: Undiluted fu=(1/D)/[((1/Apparent fu)−1)+(1/D)] Corrected fraction bound (%)=(1-undiluted fu)*100
# [2] = system: JAK1: IL-13-stimulated STAT6 phosphorylation in BEAS-2B cells; assay: P-STAT6 BEAS-2B+IL-13 Cell Assay; type: cell-based, human; details: IL-13 stimulation, read-out: Cellular JAK1 PSTAT6 BEAS2B + IL13 IC50
# How it was run: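 BEAS-2B cells in BEGM preincubated 1 h at 37 °C with 10-point, 1:2 compound dilutions, then stimulated 15 min with IL-13 (250 ng/mL stock). Lysate pSTAT6 (Tyr641) captured on total-STAT6 antibody and read by MSD electrochemiluminescence; IC50 from four-parameter logistic fit.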
# [3] = biological target: Recombinant human JAK2 kinase domain protein (Residues 812-1132) (Homo sapiens, UniProt O60674); assay: JAK2 biochemical assay (microfluidic mobility shift, peptide phosphorylation); details: Enzyme JAK2 Ki (nM), 25 μM ATP, 0.2 nM total JAK2
# Protocol: The in vitro biochemical assays quantify JAK-catalyzed phosphorylation of a synthetic peptide, as detected using a LabChip® EZ Reader II microfluidic mobility shift instrument (PerkinElmer; Waltham, Mass.). […] Y-1B is fluorescently labeled on the N-terminus with 5-FAM (5-carboxyfluorescein) and contains a single tyrosine residue (Y) that can be phosphorylated by JAK activity. The substrate peptide stock is prepared in DMSO at 5 mM.
# In each titration experiment, test compound was tested in duplicate at each of the twelve concentrations. Blank reactions contained ATP, peptide, and DMSO, but no JAK or test compound, whereas uninhibited control reactions contained ATP, peptide, JAK, and DMSO, but no test compound.
# Peptide plus ATP mixture (24 μL) was added to 1 μL of test compound in DMSO (or DMSO alone). The reactions were initiated by adding 25 μL of JAK enzyme to the inhibitor/peptide/ATP mixture before thoroughly mixing the resultant solution. Reactions were incubated at room temperature (22° C.-23° C.) in a final volume of 50 μL per well in 384-well plates.
# In each reaction, the residual Y-1B substrate and the phospho-peptide product generated were separated using the EZ Reader II instrument. Electrophoretic separation of molecules of product from molecules of substrate was achieved using downstream and upstream voltages of −500 and −2600 V, respectively, at an operating pressure of −1.3 psi.
# The extent (or percent) of conversion of substrate to product was calculated from the corresponding peak heights in the electropherogram using HTS Well Analyzer software, Version 5.2 (PerkinElmer), and the following equation (Equation 1): % conversion=[P÷(S+P)]×100 Equation 1 where S and P represent the peak heights of the substrate and product, respectively. After any baseline signal from blank wells containing no JAK was subtracted from the signal of all test wells, the % conversion data were converted to fractional activity as shown in Equation 2, where vi and vo are the % conversion in the presence and absence of test compound, respectively.
# [4] = biological target: T1, recombinant human JAK1 kinase domain protein (Residues 854-1154) (Homo sapiens, UniProt P23458); assay: JAK1 biochemical assay (microfluidic mobility shift, peptide phosphorylation); details: 25 μM ATP, 1 nM total JAK1; read-out: Enzyme JAK1 Ki
# T1 construct: human JAK1 kinase domain protein (Residues 854-1154); purchased Proteros Biostructures GmbH (Martinsried, Germany); host or cells: insect cells
# Source text: JAK1 and JAK2 Biochemical Assays
# Sequence of Recombinant human JAK2 kinase domain protein (Residues 812-1132) (O60674 812-1132): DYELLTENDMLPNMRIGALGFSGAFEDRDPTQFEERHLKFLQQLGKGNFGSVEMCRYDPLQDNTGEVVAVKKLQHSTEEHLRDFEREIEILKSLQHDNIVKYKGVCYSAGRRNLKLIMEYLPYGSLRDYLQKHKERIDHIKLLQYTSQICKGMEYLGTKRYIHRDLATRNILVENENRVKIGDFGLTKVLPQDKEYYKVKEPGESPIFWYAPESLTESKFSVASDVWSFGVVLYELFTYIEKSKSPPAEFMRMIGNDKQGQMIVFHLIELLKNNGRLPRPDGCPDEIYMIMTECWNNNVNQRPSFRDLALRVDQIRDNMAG
# T1 sequence (P23458 854-1154): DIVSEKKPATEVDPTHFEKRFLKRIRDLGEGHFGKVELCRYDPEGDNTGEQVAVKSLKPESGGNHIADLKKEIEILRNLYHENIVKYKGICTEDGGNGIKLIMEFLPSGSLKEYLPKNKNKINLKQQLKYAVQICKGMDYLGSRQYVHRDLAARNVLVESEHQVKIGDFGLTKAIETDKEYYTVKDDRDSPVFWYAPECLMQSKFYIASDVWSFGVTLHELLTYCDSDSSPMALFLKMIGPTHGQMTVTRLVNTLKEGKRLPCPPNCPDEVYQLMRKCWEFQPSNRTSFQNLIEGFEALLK
Compound,Mouse LTB % [1] [%],"Lung tissue binding, % [1] [%]",further results
"CC(O)C(C)S(=O)(=O)c1ccc(OC(F)F)c(-c2nn(C)cc2NC(=O)c2cnn3cccnc23)c1 (single isomer, unassigned) [Example 69, N-[3-[2-(difluoromethoxy)-5-(2-hydroxy-1-methyl-propyl)sulfonyl-phenyl]-1-methyl-pyrazol-4-yl]pyrazolo[1,5-a]pyrimidine-3-carboxamide]",78.4,,IC50 [2]: 77 nM
Cn1cc(NC(=O)c2cnn3cccnc23)c(-c2cc(SC3COC3)ccc2OC(F)F)n1 [reference compound],,97.4,
"CNCCn1cc(S(=O)(=O)c2ccc(OC(F)F)c(-c3nn(C)cc3NC(=O)c3cnn4cccnc34)c2)cn1 [Example 48, N-[3-[2-(difluoromethoxy)-5-[1-[2-(methylamino)ethyl]pyrazol-4-yl]sulfonyl-phenyl]-1-methyl-pyrazol-4-yl]pyrazolo[1,5-a]pyrimidine-3-carboxamide]",91.3,,"Ki [3]: 0.39 nM; Ki [4]: 0.52 nM; IC50 ([2]; Homo sapiens, BEAS-2B): 130 nM"

# Now from value to molecule, other results behind:
Mouse LTB % [1] [%],"Lung tissue binding, % [1] [%]",Compound,further results
,97,Cn1cc(Sc2ccc(OC(F)F)c(-c3nn(C)cc3NC(=O)c3cnn4cccnc34)c2)cn1 [reference compound],
,96.9,CSc1ccc(OC(F)F)c(-c2nn(CC#N)cc2NC(=O)c2cnn3cccnc23)c1 [reference compound],
